Experimental data reported in patent US20260199902A1, “SYSTEM AND APPARATUS FOR THE HAND-HELD AMPLIFICATION AND DETECTION OF NUCLEIC ACIDS” (Darwin Biosciences, Inc., priority 2022, published 2026).
Where a name gives a salt, the structure may show the parent alone.

Columns and labels:
saliva RNases = assay: RNase activity assay: cell line RNA incubated with treated saliva, read on Agilent TapeStation; assay type: biochemical, human; design: key: Pass (green) indicating sufficient RNase inactivation; Partial Pass (yellow) indicating partial RNase inactivation; Fail (red) indicating incomplete RNase inactivation
Description: FIG. 27. Example of saliva RNase activity assays assayed on TapeStation High Sensitivity RNA ScreenTapes (5067; Agilent). Results from three independent assays are shown. Lanes 1-3 (left to right) are experimental controls including 500 μg RNA in RNase free water, untreated saliva without added cell line RNA, and untreated saliva incubated with cell line RNA. Lanes labeled “Incomplete RNase Inactivation” contain no ribosomal RNA bands, indicating RNase activity is present. Lanes labeled “Sufficient RNase Inactivation” contain sharp ribosomal bands (similar to RNA in water), indicating RNases have been inactivated. gDNA=genomic DNA.
(§1) To screen for chemical and protein-based reagents that inhibit saliva RNases, we developed an RNase activity assay in which purified cell line RNA was incubated for 30 min at 37° C. with saliva samples after treatment with potential reagents for RNase inhibition (FIG. 2.5.3). After incubation, RNA was purified and analyzed on an Agilent TapeStation. Sharpness of the eukaryotic ribosomal RNA bands (28S and 18S) were compared to determine RNase activity in the presence of various inhibitors. In addition, the Agilent TapeStation calculates an RNA Integrity Score (RIN) as a measure of RNA quality (RIN of 10-fully intact RNA, RIN of 1=fully degraded RNA), however contaminating nucleic acid (e.g., 16S and 23S rRNA from bacteria) interferes with this calculation.
as §1, with “10=fully” for “10-fully”, “calculation. In total, 54 unique reagents, concentrations, and buffer formulations were tested for their ability to inactivate RNases.” for “calculation.”

RT-RPA reactions = assay: RT-RPA interference (compatibility) testing of lysis and RNase inhibitor reagents, agarose gel; assay type: biochemical; design: key: Pass (green) indicates that reagents did not interfere with RT-RPA; Partial Pass: Partial pass (yellow) indicates that reagents had partial interference in RT-RPA; Fail (red) indicates reagents completely interfered with RT-RPA reactions
Description: FIG. 28. Reagent interference testing in RT-RPA. Lysis and RNase inhibitor reagents tested in RT-RPA using cDNA and RNA templates. RT-RPA reactions were prepared with varying concentrations of reagents, as labeled above (final concentrations in a 20 μl RT-RPA reaction are reported). Amplification products were run on a 2% agarose gel and band intensities were compared to control (No added reagent) reactions. Reactions labeled in red contain no reverse transcriptase. The expected size of the CXCL8 amplicon is indicated to the left of the gel. GuHCI=Guanidine hydrochloride, Triton=Triton X-100.
Reagents under consideration for the device were tested for compatibility with RT-RPA at the concentrations expected to be required for lysis. To test for interference, lysis or RNase inhibitor reagents were spiked into RT-RPA reactions with purified cell line RNA or cDNA as a template. Reactions were analyzed by agarose gel for the presence or absence of amplified products. […]

RT-RPA reaction = assay: RT-RPA efficiency in the presence of Buffer 20 and Buffer 21; assay type: biochemical; conditions: 100 mM
Description: FIG. 7. Evaluation of optimized sample treatment and lysis buffer components. (A) RT-RPA efficiency in the presence of Buffer 20 and Buffer 21, using cell line RNA as (+) template and (−) no template control. (B) Optimized early/pre-infection diagnostic sample treatment and lysis tested on 5 individuals. −RT=no reverse transcriptase was included in the RT-RPA reaction, +RT=Superscript IV was added to the RPA reaction at a final concentration of 1 U/μl.
We therefore modified the lysis buffer formulation to Buffer 21 (5 mM TCEP-HCl, 7.5% Tween-20, 0.00167% Digitonin), which removed the guanidine hydrochloride and RNase Inhibitor. […] The present inventors lyophilized Buffer 21 into the selected lysis pad material and processed saliva from five donors through the device (FIG. 7B). This processing included expression of the sample from a collection pad, which pushed the sample through the lysis pad embedded with Buffer 21 and 4 U/μl of mRI, followed by the 10 μm filter, 100 mg of Chelex-100, and 1 μm filter. The resulting sample was used to reconstitute RPA reagents (Twist rehydration buffer and Twist enzymes), and reverse transcriptase and modified RPA primers were added to the reaction.

[1] = system: primer dimers in multiplexed RT-RPA; assay: Betaine as additive in multiplexed RT-RPA; assay type: biochemical; conditions: preliminary experiments
Text: A challenge of multiplexed RT-RPA is an increased tendency to form primer dimers that impact the readout on a lateral flow strip. We have explored the use of betaine as an additive to reduce the occurrence of primer dimers. Betaine can prevent the formation of primer dimers in isothermal amplification by effectively lowering the melting temperature of an oligo sequence. […] Thus, betaine may be an effective additive to reduce primer dimers in RT-RPA reactions in certain embodiments.

[2] = 100 mM final in RT-RPA reaction

O[C@@H](CS)[C@@H](O)CS [DTT]
Inactivation of saliva RNases, Result (saliva RNases; 10 mM): Fail

O=C(O)CN(CCN(CC(=O)O)CC(=O)O)CC(=O)O [EDTA]
Compatibility in RT-RPA, Result (RT-RPA reactions; 2 mM final in RT-RPA reaction): Pass | Compatibility in RT-RPA, Result (RT-RPA reactions; 6 mM final in RT-RPA reaction): Partial Pass | Compatibility in RT-RPA, Result (RT-RPA reactions; 18 mM final in RT-RPA reaction): Fail

N#CS.N=C(N)N [GTC]
Compatibility in RT-RPA, Result (RT-RPA reactions; [2]): Fail

Cl.N=C(N)N [GuHCl, Guanidine hydrochloride]
Compatibility in RT-RPA, Result (RT-RPA reactions; [2]): Pass | Compatibility in RT-RPA, Result (RT-RPA reactions; 200 mM final in RT-RPA reaction): Fail | Effect on RT-RPA reaction efficiency (RT-RPA reaction): reduces the overall efficiency of the RT-RPA reaction

Cl [HCl, Hydrochloric acid]
Compatibility in RT-RPA, Result (RT-RPA reactions; 5 mM final in RT-RPA reaction): Pass

CCCCCCCCCCCCOS(=O)(=O)[O-].[Na+] [SDS, sodium dodecyl sulfate]
Compatibility in RT-RPA, Result (RT-RPA reactions; 0.005% final in RT-RPA reaction): Fail

Cl.O=C(O)CCP(CCC(=O)O)CCC(=O)O [TCEP-HCl]
Compatibility in RT-RPA, Result (RT-RPA reactions; 5 mM final in RT-RPA reaction): Partial Pass | Compatibility in RT-RPA, Result (RT-RPA reactions; 10 mM final in RT-RPA reaction): Fail | Inactivation of saliva RNases, Result (saliva RNases; 5 mM and 12.5 mM): Fail | Inactivation of saliva RNases, Result (saliva RNases; 50 mM): Pass

O=C(O)CCP(CCC(=O)O)CCC(=O)O [TCEP-neutral]
Inactivation of saliva RNases, Result (saliva RNases; 5 mM and 50 mM): Fail

OCCS [beta-mercaptoethanol]
Inactivation of saliva RNases, Result (saliva RNases; 143 mM): Fail

C[N+](C)(C)CC(=O)O [betaine]
Primer noise [1]: can reduce primer noise in multiplexed RT-RPA reactions

C[C@@H]1CC[C@@]2(OC1)O[C@H]1[C@@H](O)[C@H]3[C@@H]4CC[C@H]5C[C@@H](O[C@@H]6O[C@H](CO)[C@H](O[C@@H]7O[C@H](CO)[C@@H](O)[C@H](O[C@@H]8OC[C@@H](O)[C@H](O)[C@H]8O)[C@H]7O[C@@H]7O[C@H](CO)[C@H](O)[C@H](O[C@@H]8O[C@H](CO)[C@@H](O)[C@H](O)[C@H]8O)[C@H]7O)[C@H](O)[C@H]6O)[C@H](O)C[C@]5(C)[C@H]4CC[C@]3(C)[C@H]1[C@@H]2C [digitonin]
Compatibility in RT-RPA, Result (RT-RPA reactions; 1% final in RT-RPA reaction): Pass

CCCCCCCCCCCC(=O)N(C)CC(=O)[O-].[Na+] [sarkosyl]
Compatibility in RT-RPA, Result (RT-RPA reactions; 0.01% final in RT-RPA reaction): Partial Pass | Compatibility in RT-RPA, Result (RT-RPA reactions; 0.1% final in RT-RPA reaction): Fail

IGEPAL
Compatibility in RT-RPA, Result (RT-RPA reactions; 0.01%-0.25% final in RT-RPA reaction): Partial Pass

Triton X-100
Compatibility in RT-RPA, Result (RT-RPA reactions; 1% final in RT-RPA reaction): Pass | Compatibility in RT-RPA, Result (RT-RPA reactions; 5%-10% final in RT-RPA reaction): Partial Pass
